Source: PubChem BioAssay AID1963979 (Molecular Pharmacology Branch, DTP, NCI, 2024)
pIC50: −log10 of the molar value. Values joined by “and” are separate entries in the source; they are usually repeats but may differ in a detail not shown here. Equal entries are not always repeated.

System: 361931-004-R-J1-PDC multicell spheroid viability
Test: Anticancer human tumor 361931-004-R-J1-PDC patient-derived colon adenocarcinoma cell line growth inhibition [PI3K]
Settings: for viability, T/C: stronger effect = lower value
Procedure, shortened: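 Spheroid viability read-out. Co-cultures contained the tumor line plus HUVEC and human MSCs. Each agent was paired with a PI3K inhibitor (inavolisib, alpelisib, duvelisib, copanlisib) across half-log dilutions starting at clinical Cmax, or at 10 microM when Cmax was unknown.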

[1] = curve of first compound, second compound 0.00316 µM
[2] = curve of first compound, second compound 0.01 µM
[3] = curve of first compound, second compound 0.0316 µM
[4] = curve of first compound, second compound 0.1 µM
[5] = curve of first compound, second compound 0.316 µM
[6] = curve of first compound, second compound 1 µM
[7] = second compound 0.00316 µM, first compound 0.000316 µM
[8] = second compound 0.00316 µM, first compound 0.001 µM
[9] = second compound 0.00316 µM, first compound 0.00316 µM
[10] = second compound 0.00316 µM, first compound 0.01 µM
[11] = second compound 0.00316 µM, first compound 0.0316 µM
[12] = second compound 0.00316 µM, first compound 0.1 µM
[13] = second compound 0.01 µM, first compound 0.000316 µM
[14] = second compound 0.01 µM, first compound 0.001 µM
[15] = second compound 0.01 µM, first compound 0.00316 µM
[16] = second compound 0.01 µM, first compound 0.01 µM
[17] = second compound 0.01 µM, first compound 0.0316 µM
[18] = second compound 0.01 µM, first compound 0.1 µM
[19] = second compound 0.0316 µM, first compound 0.000316 µM
[20] = second compound 0.0316 µM, first compound 0.001 µM
[21] = second compound 0.0316 µM, first compound 0.00316 µM
[22] = second compound 0.0316 µM, first compound 0.01 µM
[23] = second compound 0.0316 µM, first compound 0.0316 µM
[24] = second compound 0.0316 µM, first compound 0.1 µM
[25] = second compound 0.1 µM, first compound 0.000316 µM
[26] = second compound 0.1 µM, first compound 0.001 µM
[27] = second compound 0.1 µM, first compound 0.00316 µM
[28] = second compound 0.1 µM, first compound 0.01 µM
[29] = second compound 0.1 µM, first compound 0.0316 µM
[30] = second compound 0.1 µM, first compound 0.1 µM
[31] = second compound 0.316 µM, first compound 0.000316 µM
[32] = second compound 0.316 µM, first compound 0.001 µM
[33] = second compound 0.316 µM, first compound 0.00316 µM
[34] = second compound 0.316 µM, first compound 0.01 µM
[35] = second compound 0.316 µM, first compound 0.0316 µM
[36] = second compound 0.316 µM, first compound 0.1 µM
[37] = second compound 1 µM, first compound 0.000316 µM
[38] = second compound 1 µM, first compound 0.001 µM
[39] = second compound 1 µM, first compound 0.00316 µM
[40] = second compound 1 µM, first compound 0.01 µM
[41] = second compound 1 µM, first compound 0.0316 µM
[42] = second compound 1 µM, first compound 0.1 µM
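Also: spheroids exposed to agents for seven days before readout.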

Q: How did the pIC50 [1] turn out when `Cn1ncnc1[C@H]1c2n[nH]c(=O)c3cc(F)cc(c23)N[C@@H]1c1ccc(F)cc1` + CC(Nc1ccc2c(c1)OCCn1cc(N3C(=O)OCC3C(F)F)nc1-2)C(N)=O was run?
A: < 7.00

Q: What about the pIC50 [2] of the same compound?
A: < 7.00

Q: And the pIC50 [3]?
A: < 7.00

Q: What about the pIC50 [4] of the same compound?
A: < 7.00

Q: What about the pIC50 [5] of the same compound?
A: < 7.00

Q: And the pIC50 [6]?
A: < 7.00

Q: What about the viability, T/C [7] of the same compound?
A: 95.9%

Q: And the viability, T/C [8]?
A: 96.1%

Q: And the viability, T/C [9]?
A: 89.4%

Q: What about the viability, T/C [10] of the same compound?
A: 88.8%

Q: What about the viability, T/C [11] of the same compound?
A: 95.6%

Q: What about the viability, T/C [12] of the same compound?
A: 81.9%

Q: What about the viability, T/C [13] of the same compound?
A: 99.7%

Q: What about the viability, T/C [14] of the same compound?
A: 98.7%

Q: And the viability, T/C [15]?
A: 94.6%

Q: And the viability, T/C [16]?
A: 94.2%

Q: And the viability, T/C [17]?
A: 89.8%

Q: What about the viability, T/C [18] of the same compound?
A: 91.1%

Q: And the viability, T/C [19]?
A: 97.8%

Q: What about the viability, T/C [20] of the same compound?
A: 100%

Q: What about the viability, T/C [21] of the same compound?
A: 95.4%

Q: And the viability, T/C [22]?
A: 94.3%

Q: What about the viability, T/C [23] of the same compound?
A: 98%

Q: What about the viability, T/C [24] of the same compound?
A: 93.6%

Q: And the viability, T/C [25]?
A: 101%

Q: And the viability, T/C [26]?
A: 77.5%

Q: What about the viability, T/C [27] of the same compound?
A: 93.7%

Q: And the viability, T/C [28]?
A: 86.2%

Q: And the viability, T/C [29]?
A: 82%

Q: What about the viability, T/C [30] of the same compound?
A: 67.1%

Q: What about the viability, T/C [31] of the same compound?
A: 89.3%

Q: And the viability, T/C [32]?
A: 94.8%

Q: What about the viability, T/C [33] of the same compound?
A: 86.2%

Q: And the viability, T/C [34]?
A: 85.4%

Q: What about the viability, T/C [35] of the same compound?
A: 77.5%

Q: And the viability, T/C [36]?
A: 76.2%

Q: What about the viability, T/C [37] of the same compound?
A: 85.9%

Q: And the viability, T/C [38]?
A: 77.4%

Q: And the viability, T/C [39]?
A: 88.2%

Q: What about the viability, T/C [40] of the same compound?
A: 69.7%

Q: What about the viability, T/C [41] of the same compound?
A: 70.6%

Q: What about the viability, T/C [42] of the same compound?
A: 64.4%

Q: Which results are given for `CC(C)n1nc(-c2ccc3oc(N)nc3c2)c2c(N)ncnc21` + Cc1nc(NC(=O)N2CCCC2C(N)=O)sc1-c1ccnc(C(C)(C)C(F)(F)F)c1?
A: pIC50 [3]: < 7.00; pIC50 [4]: < 7.00; pIC50 [5]: 7.00; pIC50 [6]: 7.15; pIC50 (curve of first compound, second compound 3.16 µM): 7.27; pIC50 (curve of first compound, second compound 10 µM): 7.67; viability, T/C [19]: 102%; viability, T/C [20]: 101%; viability, T/C [21]: 97.8%; viability, T/C [22]: 97.8%; viability, T/C [23]: 101%; viability, T/C [24]: 64.5%; viability, T/C [25]: 108%; viability, T/C [26]: 111%; viability, T/C [27]: 99.3%; viability, T/C [28]: 101%; viability, T/C [29]: 90.2%; viability, T/C [30]: 58.1%; viability, T/C [31]: 106%; viability, T/C [32]: 93.8%; viability, T/C [33]: 96.8%; viability, T/C [34]: 93.7%; viability, T/C [35]: 88.9%; viability, T/C [36]: 49%; viability, T/C [37]: 94.2%; viability, T/C [38]: 89%; viability, T/C [39]: 82.3%; viability, T/C [40]: 91.3%; viability, T/C [41]: 72.9%; viability, T/C [42]: 39.9%; viability, T/C (second compound 3.16 µM, first compound 0.000316 µM): 83.9%; viability, T/C (second compound 3.16 µM, first compound 0.001 µM): 85.2%; viability, T/C (second compound 3.16 µM, first compound 0.00316 µM): 83.8%; viability, T/C (second compound 3.16 µM, first compound 0.01 µM): 68.9%; viability, T/C (second compound 3.16 µM, first compound 0.0316 µM): 72.3%; viability, T/C (second compound 3.16 µM, first compound 0.1 µM): 29.6%; viability, T/C (second compound 10 µM, first compound 0.000316 µM): 65%; viability, T/C (second compound 10 µM, first compound 0.001 µM): 62.4%; viability, T/C (second compound 10 µM, first compound 0.00316 µM): 64%; viability, T/C (second compound 10 µM, first compound 0.01 µM): 60%; viability, T/C (second compound 10 µM, first compound 0.0316 µM): 45%; viability, T/C (second compound 10 µM, first compound 0.1 µM): 19.2%

Q: `CC(C)n1nc(-c2ccc3oc(N)nc3c2)c2c(N)ncnc21` was tested. Which viability, T/C (compound 0.000316 µM) did it give?
A: 99.8% [middle of 4 runs]

Q: What about the viability, T/C (compound 0.001 µM) of the same compound?
A: 102% [middle of 4 runs]

Q: What about the viability, T/C (compound 0.00316 µM) of the same compound?
A: 108% and 100% (2×) and 104%

Q: And the viability, T/C (compound 0.01 µM)?
A: 108% and 100% (2×) and 101%

Q: What about the viability, T/C (compound 0.0316 µM) of the same compound?
A: 99.3% [middle of 4 runs]

Q: And the viability, T/C (compound 0.1 µM)?
A: 76% [middle of 4 runs]

Q: And the pIC50 (curve of compound)?
A: < 7.00

Q: `Cn1ncnc1[C@H]1c2n[nH]c(=O)c3cc(F)cc(c23)N[C@@H]1c1ccc(F)cc1` + COc1c(OCCCN2CCOCC2)ccc2c3n(c(=NC(=O)c4cnc(N)nc4)nc12)CCN3 was tested. Which pIC50 [1] did it give?
A: < 7.00

Q: And the pIC50 [2]?
A: < 7.00

Q: And the pIC50 [3]?
A: < 7.00

Q: What about the pIC50 [4] of the same compound?
A: < 7.00

Q: What about the pIC50 [5] of the same compound?
A: 8.96

Q: What about the pIC50 [6] of the same compound?
A: > 9.50

Q: What about the viability, T/C [7] of the same compound?
A: 105%

Q: And the viability, T/C [8]?
A: 106%

Q: What about the viability, T/C [9] of the same compound?
A: 97.9%

Q: And the viability, T/C [10]?
A: 98.2%

Q: And the viability, T/C [11]?
A: 101%

Q: And the viability, T/C [12]?
A: 87.8%

Q: And the viability, T/C [13]?
A: 91.1%

Q: And the viability, T/C [14]?
A: 97.1%

Q: And the viability, T/C [15]?
A: 102%

Q: What about the viability, T/C [16] of the same compound?
A: 93%

Q: And the viability, T/C [17]?
A: 91.5%

Q: And the viability, T/C [18]?
A: 84.9%

Q: And the viability, T/C [19]?
A: 97%

Q: What about the viability, T/C [20] of the same compound?
A: 87%

Q: And the viability, T/C [21]?
A: 90%

Q: What about the viability, T/C [22] of the same compound?
A: 82.7%

Q: And the viability, T/C [23]?
A: 87.3%

Q: And the viability, T/C [24]?
A: 77.9%

Q: What about the viability, T/C [25] of the same compound?
A: 81.7%

Q: What about the viability, T/C [26] of the same compound?
A: 73.5%

Q: And the viability, T/C [27]?
A: 78.6%

Q: What about the viability, T/C [28] of the same compound?
A: 72.4%

Q: And the viability, T/C [29]?
A: 80.3%

Q: And the viability, T/C [30]?
A: 64.7%

Q: What about the viability, T/C [31] of the same compound?
A: 50.5%

Q: What about the viability, T/C [32] of the same compound?
A: 53.9%

Q: And the viability, T/C [33]?
A: 48.3%

Q: And the viability, T/C [34]?
A: 41.5%

Q: And the viability, T/C [35]?
A: 41%

Q: And the viability, T/C [36]?
A: 39.2%

Q: And the viability, T/C [37]?
A: 15.9%

Q: What about the viability, T/C [38] of the same compound?
A: 19.1%

Q: What about the viability, T/C [39] of the same compound?
A: 20.5%

Q: And the viability, T/C [40]?
A: 19.7%

Q: What about the viability, T/C [41] of the same compound?
A: 16.3%

Q: What about the viability, T/C [42] of the same compound?
A: 17.6%
